# Source: article PMC9821907, “Synthesis and Antiprotozoal Activity of Azabicyclo-Nonane Pyrimidine Hybrids” (Molecules, 2022)
# Like-named read-outs stand apart in the source and are kept apart here.
# How the values were obtained:
# [1] = tested on: P. falciparum K1; design: method as in PMID 25746816; conditions: K1 strain, resistant to chloroquine, sulfadoxine and pyrimethamine; ref [12]; cited from earlier work
# [2] = tested on: T. brucei rhodesiense STIB900; design: method as in PMID 25746816; conditions: ref [12]; cited from earlier work
# [3] = tested on: L-6 cells; conditions: cited from earlier work
# [4] = tested on: P. falciparum NF54; conditions: NF54 strain, sensitive to chloroquine and pyrimethamine, cited from earlier work
# [5] = tested on: P. falciparum NF54; test: In vitro microplate 3H-hypoxanthine incorporation assay against P. falciparum NF54; format: cell-based; conditions: Plasmodium falciparum; NF54 strain, sensitive to chloroquine and pyrimethamine; average of four determinations; read-out: P. falciparum NF54 IC50
# Method: (§1) Compounds were tested for their activities against Plasmodium falciparum NF54 (sensitive to chloroquine) and Trypanosoma brucei rhodesiense STIB900, via serial dilution assays. Furthermore, selected compounds were tested against the K1 strain of Plasmodium falciparum (resistant against chloroquine, sulfadoxine and pyrimethamine). Their cytotoxicity was determined with rat skeletal myoblasts (L-6 cells).
# (§2) In vitro activity against erythrocytic stages of P. falciparum was determined using a ^3H-hypoxanthine incorporation assay using the drug sensitive NF54 strain [27] or the chloroquine- and pyrimethamine-resistant K1 strain [28]. Compounds were dissolved in DMSO at 10 mg/mL and further diluted in medium before being added to parasite cultures incubated in RPMI 1640 medium without hypoxanthine, supplemented with HEPES (5.94 g/L), NaHCO3 (2.1 g/L), neomycin (100 U/mL), Albumax® (5 g/L) and washed human red cells A+ at 2.5% haematocrit (0.3% parasitaemia). Serial drug dilutions of eleven 3-fold dilution steps covering a range from 100 to 0.002 μg/mL were prepared. The 96-well plates were incubated in a humidified atmosphere at 37 °C; 4% CO2, 3% O2, 93% N2. After 48 h, 0.05 mL of ^3H-hypoxanthine (= 0.5 μCi) was added to each well of the plate. The plates were incubated for a further 24 h under the same conditions. The plates were then harvested with a Betaplate™ cell harvester (Wallac, Zurich, Switzerland), and the red blood cells transferred onto a glass fibre filter then washed with distilled water. The dried filters were inserted into a plastic foil with 10 mL of scintillation fluid, and counted in a Betaplate™ liquid scintillation counter (Wallac, Zurich, Switzerland). IC50 values were calculated from sigmoidal inhibition curves by linear regression using Microsoft Excel. Chloroquine (Sigma C6628) was used as control.
# [6] = tested on: P. falciparum K1; test: In vitro microplate 3H-hypoxanthine incorporation assay against P. falciparum K1; format: cell-based, Plasmodium falciparum; conditions: Plasmodium falciparum, K1, K1 strain, resistant to chloroquine, sulfadoxine and pyrimethamine; average of four determinations; read-out: P. falciparum K1 IC50
# Method: as §1, §2
# [7] = tested on: T. brucei rhodesiense STIB900; test: In vitro microplate resazurin assay against T. brucei rhodesiense; format: cell-based; conditions: Trypanosoma brucei; bloodstream forms; average of four determinations; read-out: T. brucei rhodesiense STIB900 IC50
# Method: as §1
# Minimum essential medium (50 µL) supplemented with 25 mM HEPES, 1g/L additional glucose, 1% MEM non-essential amino acids (100×), 0.2 mM 2-mercaptoethanol, 1mM Na-pyruvate and 15% heat-inactivated horse serum was added to each well of a 96-well microtiter plate. Serial drug dilutions of eleven 3-fold dilution steps covering a range from 100 to 0.002 μg/mL were prepared. Then 4 × 10^3 bloodstream forms of T. b. rhodesiense STIB 900 in 50 µL was added to each well and the plate incubated at 37 °C under a 5 % CO2 atmosphere for 70 h. Next, 10 µL resazurin solution (resazurin, 12.5 mg in 100 mL double-distilled water) was added to each well and incubation continued for a further 2–4 h. Then the plates were read with a Spectramax Gemini XS microplate fluorometer (Molecular Devices Cooperation, Sunnyvale, CA, USA) using an excitation wave length of 536 nm and an emission wave length of 588 nm. Data were analyzed with the graphic programme Softmax Pro (Molecular Devices Cooperation, Sunnyvale, CA, USA), which calculated IC50 values by linear regression and 4-parameter logistic regression from the sigmoidal dose inhibition curves. Melarsoprol (Arsobal Sanofi-Aventis, received from WHO) was used as control.
# [8] = in vitro; conditions: rat
# Method: as §1
# (§3) Assays were performed in 96-well microtiter plates, each well containing 0.1 mL of RPMI 1640 medium supplemented with 1% L-glutamine (200 mM) and 10% fetal bovine serum, and 4000 L-6 cells (a primary cell line derived from rat skeletal myoblasts, ATCC CRL-1458™). Serial drug dilutions of eleven 3-fold dilution steps covering a range from 100 to 0.002 μg/mL were prepared. After 70 h of incubation the plates were inspected under an inverted microscope to assure growth of the controls and sterile conditions. Then, 0.01 mL resazurin solution (resazurin, 12.5 mg in 100 mL double-distilled water) was added to each well and the plates incubated for another 2 h. The plates were read with a Spectramax Gemini XS microplate fluorometer (Molecular Devices Cooperation, Sunnyvale, CA, USA) using an excitation wave length of 536 nm and an emission wave length of 588 nm. The IC50 values were calculated by linear regression from the sigmoidal dose inhibition curves using SoftmaxPro software (Molecular Devices Cooperation, Sunnyvale, CA, USA). Podophyllotoxin (Sigma P4405) was used as control.
# [9] = tested on: L-6 cells; test: In vitro cytotoxicity with L-6 cells; conditions: read-out: Cytotoxicity L-6 Cells IC50; rat skeletal myoblasts; average of four determinations
# Method: as §1, §3
Compound,IC50 [5],IC50 [6],IC50 [7],IC50 at 72 h [8],also measured
1-(piperidin-1-yl)-3-azabicyclononane [Compound 3],–,–,–,–,IC50 [1]: 750 nM; IC50 [2]: 2020 nM; IC50 [3]: 122000 nM
1-(pyrrolidin-1-yl)-3-azabicyclononane [Compound 4],–,–,–,–,"IC50 ([4]; ref [13]): 72 nM; IC50 [1]: 95 nM; IC50 [2]: 1000 nM; IC50 ([3]; read-out: Cytotoxicity L-6 Cells IC50, rat skeletal myoblasts, ref [12]): 72900 nM"
5-(piperidin-1-yl)-2-azabicyclo-nonane [Compound 1],–,–,–,–,IC50 [1]: 640 nM; IC50 [2]: 6570 nM; IC50 [3]: 89700 nM
5-(pyrrolidin-1-yl)-2-azabicyclononane [Compound 2],–,–,–,–,IC50 [1]: 560 nM; IC50 [2]: 1160 nM; IC50 [3]: 120000 nM
Nc1cc(N2CC3C(c4ccccc4)CC(N4CCCC4)(CC3c3ccccc3)C2)nc(N)n1 (racemic) [Compound 12],33 ± 16 nM,172 ± 51 nM,946 ± 374 nM,11100 ± 836 nM,–
"Cc1cc(N2CCC3(N4CCCCC4)C[C@H](c4ccccc4)C2[C@@H](c2ccccc2)C3)nc(Cl)n1 (racemic) [Compound 13, rac-(7R,8R)-2-(2-chloro-6-methylpyrimidin-4-yl)-7,8-diphenyl-5-(piperidin-1-yl)-2-azabicyclo[3.2.2]nonane]",694 ± 18 nM,567 ± 47 nM,1550 ± 47 nM,3100 ± 51 nM,–
"Cc1cc(N2CCC3(N4CCCC4)C[C@H](c4ccccc4)C2[C@@H](c2ccccc2)C3)nc(Cl)n1 (racemic) [Compound 14, rac-(7R,8R)-2-(2-chloro-6-methylpyrimidin-4-yl)-7,8-diphenyl-5-(pyrrolidin-1-yl)-2-azabicyclo[3.2.2]nonane]",1040 ± 302 nM,366 ± 95 nM,1640 ± 22 nM,9620 ± 1100 nM,–
"Cc1cc(N2CC3C(c4ccccc4)CC(N4CCCCC4)(CC3c3ccccc3)C2)nc(Cl)n1 (racemic) [Compound 15, rac-(7R,8R)-3-(2-chloro-6-methylpyrimidin-4-yl)-6,9-diphenyl-1-(piperidin-1-yl)-3-azabicyclo[3.2.2]nonane]",1490 ± 784 nM,2080 ± 430 nM,9510 ± 914 nM,27200 ± 11800 nM,–
"Cc1cc(N2CC3C(c4ccccc4)CC(N4CCCC4)(CC3c3ccccc3)C2)nc(Cl)n1 (racemic) [Compound 16, rac-(7R,8R)-3-(2-chloro-6-methylpyrimidin-4-yl)-6,9-diphenyl-1-(pyrrolidin-1-yl)-3-azabicyclo[3.2.2]nonane]",281 ± 6 nM,292 ± 21 nM,4310 ± 21 nM,12500 ± 1440 nM,–
"Cc1cc(N2CCC3(N4CCCC4)C[C@H](c4ccccc4)C2[C@@H](c2ccccc2)C3)nc(N2CCCC2)n1 (racemic) [Compound 18, rac-(7R,8R)-2-[6-methyl-2-(pyrrolidin-1-yl)pyrimidin-4-yl]-7,8-diphenyl-5-(pyrrolidin-1-yl)-2-azabicyclo[3.2.2]nonane]",136 ± 16 nM,59 ± 2 nM,95 ± 32 nM,15000 ± 483 nM,–
"Cc1cc(N2CC3C(c4ccccc4)CC(N4CCCCC4)(CC3c3ccccc3)C2)nc(N2CCCC2)n1 (racemic) [Compound 19, rac-(7R,8R)-3-[6-methyl-2-(pyrrolidin-1-yl)pyrimidin-4-yl]-6,9-diphenyl-1-(piperidin-1-yl)-3-azabicyclo[3.2.2]nonane]",5290 ± 134 nM,694 ± 268 nM,3160 ± 1060 nM,58400 ± 22900 nM,–
"Cc1cc(N2CC3C(c4ccccc4)CC(N4CCCC4)(CC3c3ccccc3)C2)nc(N2CCCC2)n1 (racemic) [Compound 20, rac-(7R,8R)-3-[6-methyl-2-(pyrrolidin-1-yl)pyrimidin-4-yl]-6,9-diphenyl-1-(pyrrolidin-1-yl)-3-azabicyclo[3.2.2]nonane]",87 ± 59 nM,87 ± 47 nM,764 ± 335 nM,4160 ± 39 nM,–
"Cc1cc(N2CC3C(c4ccccc4)CC(N4CCCCC4)(CC3c3ccccc3)C2)nc(N2CCCCC2)n1 (racemic) [Compound 23, rac-(7R,8R)-3-[6-methyl-2-(piperidin-1-yl)pyrimidin-4-yl]-6,9-diphenyl-1-(piperidin-1-yl)-3-azabicyclo[3.2.2]nonane]",607 ± 10 nM,570 ± 12 nM,3380 ± 9 nM,16000 ± 1240 nM,–
"COc1cc([C@@H]2c3cc4c(cc3[C@H](O)[C@H]3COC(=O)[C@H]23)OCO4)cc(OC)c1OC [POD, podophyllotoxin, reference compound]",–,–,–,–,IC50 [9]: 12 nM
"CCc1nc(N)nc(N)c1-c1ccc(Cl)cc1 [PYR, pyrimethamine, reference compound]",–,10000 nM,–,–,IC50 ([4]; ref [24]): 17 nM
